28 compounds from US10919911B2, “Tricyclic ASK1 inhibitors” (Terns, Inc., priority 2018, dated 2021) can be followed below.

The term pIC50 denotes the negative decadic logarithm of the IC50, by convention in mol/L. Higher therefore signals a small IC50.

pIC50: −log10 of the molar value.

The target in this test is ASK1 kinase (Homo sapiens (Human), UniProt Q99683). Briefly: RBC Kinase Assay (33P-ATP radiometric, myelin basic protein substrate). The class given is biochemical. The following applies: 20 ng ASK1 kinase, MBP substrate, 120 min at room temperature, 1% DMSO. Summed up: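 Radiometric filter-binding assay: 20 ng ASK1 with myelin basic protein in 20 mM Hepes pH 7.5, 10 mM MgCl2, 1 mM EGTA, 2 mM DTT, 1% DMSO; started with 33P-ATP, 120 min at room temperature. Reactions spotted on P81 paper, acid-washed, radioactivity counted; IC50 determined.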
Sequence of ASK1 kinase (Q99683 whole entry): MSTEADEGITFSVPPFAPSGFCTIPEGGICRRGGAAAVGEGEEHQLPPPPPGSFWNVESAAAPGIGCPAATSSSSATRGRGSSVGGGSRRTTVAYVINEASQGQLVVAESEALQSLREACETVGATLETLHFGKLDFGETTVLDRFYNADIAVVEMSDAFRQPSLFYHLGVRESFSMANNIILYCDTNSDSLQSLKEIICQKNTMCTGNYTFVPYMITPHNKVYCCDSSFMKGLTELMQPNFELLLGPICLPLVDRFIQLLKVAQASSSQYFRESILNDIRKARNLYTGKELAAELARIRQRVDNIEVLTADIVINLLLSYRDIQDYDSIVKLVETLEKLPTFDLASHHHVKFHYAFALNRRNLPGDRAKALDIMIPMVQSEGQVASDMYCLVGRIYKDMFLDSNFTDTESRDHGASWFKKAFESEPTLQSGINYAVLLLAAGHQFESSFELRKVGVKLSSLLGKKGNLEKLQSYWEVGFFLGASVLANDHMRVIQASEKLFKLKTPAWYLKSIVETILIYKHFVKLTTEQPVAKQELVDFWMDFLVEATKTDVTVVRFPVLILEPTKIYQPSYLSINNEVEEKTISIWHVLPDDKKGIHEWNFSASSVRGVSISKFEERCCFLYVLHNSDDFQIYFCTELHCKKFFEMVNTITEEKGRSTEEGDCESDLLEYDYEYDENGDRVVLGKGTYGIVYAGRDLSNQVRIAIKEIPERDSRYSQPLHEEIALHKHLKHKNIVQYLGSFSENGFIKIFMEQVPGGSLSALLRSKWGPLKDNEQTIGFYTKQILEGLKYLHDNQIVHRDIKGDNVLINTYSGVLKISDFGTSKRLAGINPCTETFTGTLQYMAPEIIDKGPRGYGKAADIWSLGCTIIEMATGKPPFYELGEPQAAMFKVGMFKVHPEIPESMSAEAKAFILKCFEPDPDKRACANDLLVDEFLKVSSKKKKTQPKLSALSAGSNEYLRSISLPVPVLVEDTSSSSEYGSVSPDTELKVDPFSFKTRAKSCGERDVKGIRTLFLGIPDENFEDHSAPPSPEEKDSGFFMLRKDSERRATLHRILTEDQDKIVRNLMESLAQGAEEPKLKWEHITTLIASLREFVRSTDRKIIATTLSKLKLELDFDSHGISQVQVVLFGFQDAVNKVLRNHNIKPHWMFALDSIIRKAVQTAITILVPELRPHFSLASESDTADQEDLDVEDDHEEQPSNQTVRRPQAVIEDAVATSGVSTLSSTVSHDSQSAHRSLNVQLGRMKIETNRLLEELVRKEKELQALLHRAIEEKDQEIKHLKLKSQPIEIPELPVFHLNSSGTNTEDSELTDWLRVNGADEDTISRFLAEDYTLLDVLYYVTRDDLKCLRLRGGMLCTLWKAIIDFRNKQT

On to `O=C(Nc1cccc2c1OCCn1nnnc1-2)c1cc(-n2cnc(C3CC3)c2)ccn1` [Example 50, 4-(4-cyclopropyl-1H-imidazol-1-yl)-N-(5,6-dihydrobenzo[f]tetrazolo[1,5-d][1,4]oxazepin-8-yl)picolinamide], for which the pIC50 is 8.41.

Compound `Cc1cc(F)c(C(=O)Nc2cccc3c2OCCn2cnc(C)c2-3)cc1-n1cnc(C2CC2)c1` [Example 51, 5-(4-cyclopropyl-1H-imidazol-1-yl)-2-fluoro-4-methyl-N-(1-methyl-5,6-dihydrobenzo[f]imidazo[1,5-d][1,4]oxazepin-8-yl)benzamide] gave a pIC50 of 6.51.

`C[C@@H]1Cn2cnnc2-c2cccc(NC(=O)c3cc(-n4cnc(C5CC5)c4)ccn3)c2O1` [Example 52, (R)-4-(4-cyclopropyl-1H-imidazol-1-yl)-N-(6-methyl-5,6-dihydrobenzo[f][1,2,4]triazolo[4,3-d][1,4]oxazepin-8-yl)picolinamide]: the pIC50 is 8.23. The compound `Cc1cc(F)c(C(=O)Nc2cccc3c2OC[C@@H]([C@@H](C)O)n2nnnc2-3)cc1-n1cnc(C2CC2)c1` [Example 53, 5-(4-cyclopropyl-1H-imidazol-1-yl)-2-fluoro-N—((S)-5-((R)-1-hydroxyethyl)-5,6-dihydrobenzo[f]tetrazolo[1,5-d][1,4]oxazepin-8-yl)-4-methylbenzamide] gave a negative logarithm of the IC50 (pIC50) of 8.19. Turning to `CN1CCN(c2cnc(C(=O)Nc3cccc4c3OCCn3nnnc3-4)cc2-n2cnc(C3CC3)c2)CC1` [Example 54, 4-(4-cyclopropyl-1H-imidazol-1-yl)-N-(5,6-dihydrobenzo[f]tetrazolo[1,5-d][1,4]oxazepin-8-yl)-5-(4-methylpiperazin-1-yl)picolinamide], the pIC50 is 8.23. `C[C@@H]1CN(c2cnc(C(=O)Nc3cccc4c3OCCn3nnnc3-4)cc2-n2cnc(C3CC3)c2)CCO1` [Example 55, (R)-4-(4-cyclopropyl-1H-imidazol-1-yl)-N-(5,6-dihydrobenzo[f]tetrazolo[1,5-d][1,4]oxazepin-8-yl)-5-(2-methylmorpholino)picolinamide] had a negative-log IC50 (pIC50) of 8.68.

`O=C(Nc1cccc2c1OCCn1cnnc1-2)c1cc(-n2cnc(C3CC3)c2)ccn1` [Example 56, 4-(4-cyclopropyl-1H-imidazol-1-yl)-N-(5,6-dihydrobenzo[f][1,2,4]triazolo[4,3-d][1,4]oxazepin-8-yl)picolinamide]: the pIC50 was 7.45. The compound `O=C(Nc1cccc2c1OCCn1nnnc1-2)c1cc(-n2cnc(C3CC3)c2)c(N2CC[C@@H](O)C2)cn1` [Example 57, (R)-4-(4-cyclopropyl-1H-imidazol-1-yl)-N-(5,6-dihydrobenzo[f]tetrazolo[1,5-d][1,4]oxazepin-8-yl)-5-(3-hydroxypyrrolidin-1-yl)picolinamide] had a pIC50 of 8.33. In the case of `O=C(Nc1cccc2c1OCCn1nnnc1-2)c1cc(-n2cnc(C3CC3)c2)c(N2CCC2)cn1` [Example 58, 5-(azetidin-1-yl)-4-(4-cyclopropyl-1H-imidazol-1-yl)-N-(5,6-dihydrobenzo[f]tetrazolo[1,5-d][1,4]oxazepin-8-yl)picolinamide], the pIC50 was 8.49.

The compound `Cc1cc(F)c(C(=O)Nc2cccc3c2OC2(CC2)Cn2nnnc2-3)cc1-n1cnc(C2CC2)c1` [Example 59, 5-(4-cyclopropyl-1H-imidazol-1-yl)-2-fluoro-4-methyl-N-(5H-spiro[benzo[f]tetrazolo[1,5-d][1,4]oxazepine-6,1′-cyclopropan]-8-yl)benzamide] gave a pIC50 of 8.38.

In the case of `CN(C)c1cnc(C(=O)Nc2cccc3c2OCCn2nnnc2-3)cc1-n1cnc(C2CC2)c1` [Example 60, 4-(4-cyclopropyl-1H-imidazol-1-yl)-N-(5,6-dihydrobenzo[f]tetrazolo[1,5-d][1,4]oxazepin-8-yl)-5-(dimethylamino)picolinamide], the pIC50 was 8.16.

For `O=C(Nc1cccc2c1OCCn1nnnc1-2)c1cc(-n2cnc(C3CC3)c2)c(N2CC[C@H](O)C2)cn1` [Example 61, (S)-4-(4-cyclopropyl-1H-imidazol-1-yl)-N-(5,6-dihydrobenzo[f]tetrazolo[1,5-d][1,4]oxazepin-8-yl)-5-(3-hydroxypyrrolidin-1-yl)picolinamide], the pIC50 was 8.46. For the compound `O=C(Nc1cccc2c1OCCn1nnnc1-2)c1cc(-n2cnc(C3CC3)c2)c(N2C[C@H]3C[C@@H]2CO3)cn1` [Example 62, 5-((1R,4R)-2-oxa-5-azabicyclo[2.2.1]heptan-5-yl)-4-(4-cyclopropyl-1H-imidazol-1-yl)-N-(5,6-dihydrobenzo[f]tetrazolo[1,5-d][1,4]oxazepin-8-yl)picolinamide], the pIC50 was 8.29. In turn, `CC1(O)CCN(c2cnc(C(=O)Nc3cccc4c3OCCn3nnnc3-4)cc2-n2cnc(C3CC3)c2)C1` (stereo not shown) [Example 63, 4-(4-cyclopropyl-1H-imidazol-1-yl)-N-(5,6-dihydrobenzo[f]tetrazolo[1,5-d][1,4]oxazepin-8-yl)-5-(3-hydroxy-3-methylpyrrolidin-1-yl)picolinamide] gave a negative logarithm of the IC50 (pIC50) of 8.57. `O=C(Nc1cccc2c1OCCn1nnnc1-2)c1cc(-n2cnc(C3CC3)c2)c(N2C[C@@H]3C[C@H]2CO3)cn1` [Example 64, 5-((1S,4S)-2-oxa-5-azabicyclo[2.2.1]heptan-5-yl)-4-(4-cyclopropyl-1H-imidazol-1-yl)-N-(5,6-dihydrobenzo[f]tetrazolo[1,5-d][1,4]oxazepin-8-yl)picolinamide] gave a pIC50 of 8.41.

Compound `C[C@H]1COCCN1c1cnc(C(=O)Nc2cccc3c2OCCn2nnnc2-3)cc1-n1cnc(C2CC2)c1` [Example 65, (S)-4-(4-cyclopropyl-1H-imidazol-1-yl)-N-(5,6-dihydrobenzo[f]tetrazolo[1,5-d][1,4]oxazepin-8-yl)-5-(3-methylmorpholino)picolinamide] gave a negative logarithm of the IC50 (pIC50) of 8.48.

Take `C[C@H]1CN(c2cnc(C(=O)Nc3cccc4c3OCCn3nnnc3-4)cc2-n2cnc(C3CC3)c2)CCO1` [Example 66, (S)-4-(4-cyclopropyl-1H-imidazol-1-yl)-N-(5,6-dihydrobenzo[f]tetrazolo[1,5-d][1,4]oxazepin-8-yl)-5-(2-methylmorpholino)picolinamide]: the pIC50 was 8.22. The result for `CC1(O)CN(c2cnc(C(=O)Nc3cccc4c3OCCn3nnnc3-4)cc2-n2cnc(C3CC3)c2)C1` [Example 67, 4-(4-cyclopropyl-1H-imidazol-1-yl)-N-(5,6-dihydrobenzo[f]tetrazolo[1,5-d][1,4]oxazepin-8-yl)-5-(3-hydroxy-3-methylazetidin-1-yl)picolinamide] reads 8.59.

Consider `CC(C)Oc1cnc(C(=O)Nc2cccc3c2OCCn2nnnc2-3)cc1-n1cnc(C2CC2)c1` [Example 68, 4-(4-cyclopropyl-1H-imidazol-1-yl)-N-(5,6-dihydrobenzo[f]tetrazolo[1,5-d][1,4]oxazepin-8-yl)-5-isopropoxypicolinamide], for which the pIC50 was 8.74. `CC(C)Oc1cnc(C(=O)Nc2cccc3c2OC[C@@H](C)n2nnnc2-3)cc1-n1cnc(C2CC2)c1` [Example 69, (R)-4-(4-cyclopropyl-1H-imidazol-1-yl)-5-isopropoxy-N-(5-methyl-5,6-dihydrobenzo[f]tetrazolo[1,5-d][1,4]oxazepin-8-yl)picolinamide] had a pIC50 of 8.39. Turning to `C[C@@H]1COCCN1c1cnc(C(=O)Nc2cccc3c2OCCn2nnnc2-3)cc1-n1cnc(C2CC2)c1` [Example 70, (R)-4-(4-cyclopropyl-1H-imidazol-1-yl)-N-(5,6-dihydrobenzo[f]tetrazolo[1,5-d][1,4]oxazepin-8-yl)-5-(3-methylmorpholino)picolinamide], the pIC50 was 8.66. `CC(C)Oc1cnc(C(=O)Nc2cccc3c2OC[C@H](C)n2nnnc2-3)cc1-n1cnc(C2CC2)c1` [Example 71, (S)-4-(4-cyclopropyl-1H-imidazol-1-yl)-5-isopropoxy-N-(5-methyl-5,6-dihydrobenzo[f]tetrazolo[1,5-d][1,4]oxazepin-8-yl)picolinamide]: the pIC50 was 8.28. Next, `Cc1cc(F)c(C(=O)Nc2cccc3c2OC2(CCC2)Cn2nnnc2-3)cc1-n1cnc(C2CC2)c1` [Example 72, 5-(4-cyclopropyl-1H-imidazol-1-yl)-2-fluoro-4-methyl-N-(5H-spiro[benzo[f]tetrazolo[1,5-d][1,4]oxazepine-6,1′-cyclobutan]-8-yl)benzamide]: 7.94. As to `CC(C)Oc1cnc(C(=O)Nc2cccc3c2OCCn2cnnc2-3)cc1-n1cnc(C2CC2)c1` [Example 73, 4-(4-cyclopropyl-1H-imidazol-1-yl)-N-(5,6-dihydrobenzo[f][1,2,4]triazolo[4,3-d][1,4]oxazepin-8-yl)-5-isopropoxypicolinamide], the pIC50 is 8.24. Regarding `Cc1cc(F)c(C(=O)Nc2cccc3c2OCCn2cnc(Br)c2-3)cc1-n1cnc(C2CC2)c1` [Example 74, N-(1-bromo-5,6-dihydrobenzo[f]imidazo[1,5-d][1,4]oxazepin-8-yl)-5-(4-cyclopropyl-1H-imidazol-1-yl)-2-fluoro-4-methylbenzamide], the pIC50 is 7.40. With `C[C@@H]1CN(c2cnc(C(=O)Nc3cccc4c3OC[C@@H](C)n3nnnc3-4)cc2-n2cnc(C3CC3)c2)CCO1` [Example 75, 4-(4-cyclopropyl-1H-imidazol-1-yl)-N—((R)-5-methyl-5,6-dihydrobenzo[f]tetrazolo[1,5-d][1,4]oxazepin-8-yl)-5-((R)-2-methylmorpholino)picolinamide], the pIC50 is 8.40. With `C[C@@H]1CN(c2cnc(C(=O)Nc3cccc4c3OC[C@H](C)n3nnnc3-4)cc2-n2cnc(C3CC3)c2)CCO1` [Example 76, 4-(4-cyclopropyl-1H-imidazol-1-yl)-N—((S)-5-methyl-5,6-dihydrobenzo[f]tetrazolo[1,5-d][1,4]oxazepin-8-yl)-5-((R)-2-methylmorpholino)picolinamide], the pIC50 is 8.49. The result for `C[C@@H]1COc2c(NC(=O)c3cc(-n4cnc(C5CC5)c4)c(N4CC[C@@H](O)C4)cn3)cccc2-c2nnnn21` [Example 77, 4-(4-cyclopropyl-1H-imidazol-1-yl)-5-((R)-3-hydroxypyrrolidin-1-yl)-N—((R)-5-methyl-5,6-dihydrobenzo[f]tetrazolo[1,5-d][1,4]oxazepin-8-yl)picolinamide] reads 8.33.
